In patent publication US12358886B2, “Heterocyclic compounds for use in the treatment of cancer” (Artios Pharma Limited, priority 2019, dated 2025):

Biological target: Polθ protein (amino acids 2-2590) (Homo sapiens, UniProt O75417)
Test: Polθ full length enzyme potency assay (PicoGreen)
Settings: Polθ IC50 (nM), full length N-His, C-term FLAG tagged Polθ, PicoGreen fluorescence, 12 point concentration response
Protocol: Polθ Full Length Enzyme Potency Assay
PicoGreen assay was used to measure the ability of compounds to inhibit the activity of Polθ in vitro. […] DMSO concentration was maintained at 1% by back filling with DMSO solution. […] This was dispensed into each well of the compound plate using a VIAFLO 16 channel manual pipette (Integra) and pre-incubated at rt for 30 min. 3 μL of 2× working solution of dNTPs (40 μM) (dATP, dCTP, dGTP, dTTP; Sigma D6500, D4635, D4010, T0251) diluted in assay buffer was then added and the reaction incubated for 60 min at rt. The reaction was stopped by addition of 10 mM EDTA, 25 mM Tris pH 7.5 and 1:200 dilution of PicoGreen dye (Invitrogen P7581).

Sequence of Polθ protein (amino acids 2-2590) (O75417 2-2590): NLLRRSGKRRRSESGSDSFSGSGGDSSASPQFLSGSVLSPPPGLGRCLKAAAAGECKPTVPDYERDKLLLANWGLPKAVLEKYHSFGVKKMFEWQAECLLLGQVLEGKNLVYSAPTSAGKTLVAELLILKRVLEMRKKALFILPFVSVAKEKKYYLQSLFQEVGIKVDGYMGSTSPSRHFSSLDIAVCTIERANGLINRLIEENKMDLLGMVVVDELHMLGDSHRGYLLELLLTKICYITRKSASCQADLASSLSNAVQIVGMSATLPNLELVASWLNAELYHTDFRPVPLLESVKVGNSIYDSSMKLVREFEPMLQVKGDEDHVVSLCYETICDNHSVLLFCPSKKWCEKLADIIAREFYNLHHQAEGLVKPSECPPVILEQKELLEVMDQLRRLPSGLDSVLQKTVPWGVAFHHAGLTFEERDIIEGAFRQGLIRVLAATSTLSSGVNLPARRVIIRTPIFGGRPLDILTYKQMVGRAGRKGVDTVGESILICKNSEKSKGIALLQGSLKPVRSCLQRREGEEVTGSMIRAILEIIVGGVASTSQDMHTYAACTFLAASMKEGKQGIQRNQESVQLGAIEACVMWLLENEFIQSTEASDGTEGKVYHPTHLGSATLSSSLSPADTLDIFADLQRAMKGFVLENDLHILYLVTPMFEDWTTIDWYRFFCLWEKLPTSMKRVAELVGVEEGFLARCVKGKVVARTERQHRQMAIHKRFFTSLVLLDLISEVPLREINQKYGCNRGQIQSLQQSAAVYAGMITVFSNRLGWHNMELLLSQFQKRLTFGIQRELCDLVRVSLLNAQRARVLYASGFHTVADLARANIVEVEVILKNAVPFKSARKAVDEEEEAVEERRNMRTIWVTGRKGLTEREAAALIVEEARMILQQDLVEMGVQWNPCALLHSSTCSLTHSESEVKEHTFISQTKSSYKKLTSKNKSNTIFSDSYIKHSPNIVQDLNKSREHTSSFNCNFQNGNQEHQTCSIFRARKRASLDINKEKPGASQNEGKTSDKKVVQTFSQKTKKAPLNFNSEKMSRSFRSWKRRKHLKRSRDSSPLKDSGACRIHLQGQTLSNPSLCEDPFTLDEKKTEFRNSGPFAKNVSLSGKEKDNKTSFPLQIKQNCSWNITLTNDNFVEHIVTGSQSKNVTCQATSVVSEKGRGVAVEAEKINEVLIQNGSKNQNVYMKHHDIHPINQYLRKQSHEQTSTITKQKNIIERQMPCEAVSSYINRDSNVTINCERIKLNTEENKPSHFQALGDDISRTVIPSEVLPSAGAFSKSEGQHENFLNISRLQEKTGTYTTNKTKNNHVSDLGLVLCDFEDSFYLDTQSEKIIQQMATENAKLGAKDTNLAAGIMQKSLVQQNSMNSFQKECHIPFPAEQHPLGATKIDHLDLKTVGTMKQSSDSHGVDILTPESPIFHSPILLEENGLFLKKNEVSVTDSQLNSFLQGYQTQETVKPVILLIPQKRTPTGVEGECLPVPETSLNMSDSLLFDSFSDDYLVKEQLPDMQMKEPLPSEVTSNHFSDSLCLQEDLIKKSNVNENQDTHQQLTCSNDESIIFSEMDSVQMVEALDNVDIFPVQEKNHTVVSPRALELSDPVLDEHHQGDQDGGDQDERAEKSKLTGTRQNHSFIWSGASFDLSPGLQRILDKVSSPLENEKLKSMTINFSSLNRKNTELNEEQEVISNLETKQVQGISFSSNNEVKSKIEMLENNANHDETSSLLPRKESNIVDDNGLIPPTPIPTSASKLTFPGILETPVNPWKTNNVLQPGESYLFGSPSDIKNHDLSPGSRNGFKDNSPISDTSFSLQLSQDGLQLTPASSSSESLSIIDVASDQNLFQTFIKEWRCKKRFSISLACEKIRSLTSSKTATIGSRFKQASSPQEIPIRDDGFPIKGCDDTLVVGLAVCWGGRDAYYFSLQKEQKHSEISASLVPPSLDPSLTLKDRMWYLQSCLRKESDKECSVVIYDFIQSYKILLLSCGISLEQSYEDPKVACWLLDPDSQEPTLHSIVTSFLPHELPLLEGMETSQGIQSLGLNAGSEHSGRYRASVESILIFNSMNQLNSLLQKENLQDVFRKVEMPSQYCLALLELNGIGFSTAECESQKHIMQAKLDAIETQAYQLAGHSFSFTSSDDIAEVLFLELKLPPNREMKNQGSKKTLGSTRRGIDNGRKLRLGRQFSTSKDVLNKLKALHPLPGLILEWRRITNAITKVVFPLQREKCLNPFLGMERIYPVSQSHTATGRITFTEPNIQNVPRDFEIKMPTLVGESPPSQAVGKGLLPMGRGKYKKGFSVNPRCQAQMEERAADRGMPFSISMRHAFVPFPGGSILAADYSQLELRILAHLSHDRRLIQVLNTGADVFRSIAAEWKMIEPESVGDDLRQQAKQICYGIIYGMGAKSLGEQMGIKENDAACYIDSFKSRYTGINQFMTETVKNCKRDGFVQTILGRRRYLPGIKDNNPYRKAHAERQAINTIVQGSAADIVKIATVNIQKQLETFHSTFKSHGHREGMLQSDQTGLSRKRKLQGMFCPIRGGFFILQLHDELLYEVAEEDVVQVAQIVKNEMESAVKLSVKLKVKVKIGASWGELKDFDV

Structure (SMILES) | IC50
CCN(C(=O)[C@H]1C[C@@H](N(C)C)CN1c1nc(C)cc(C)c1C#N)c1cccc(C)c1 (stereo in doubt) [Example 39, (2R,4R)-1-(3-Cyano-4,6-dimethylpyridin-2-yl)-4-(dimethylamino)-N-ethyl-N-(m-tolyl)pyrrolidine-2-carboxamide] | 27 nM
CCN(C(=O)[C@H]1C[C@@H](NC)CN1c1nc(C)cc(C)c1C#N)c1cccc(C)c1 (stereo in doubt) [Example 43, (2R,4R)-1-(3-Cyano-4,6-dimethylpyridin-2-yl)-N-ethyl-4-(methylamino)-N-(m-tolyl)-pyrrolidine-2-carboxamide] | 221 nM
CCN(C(=O)[C@H]1C[C@@H](NCCS(C)(=O)=O)CN1c1nc(C)cc(C)c1C#N)c1cccc(C)c1 (stereo in doubt) [Example 45, (2R,4R)-1-(3-Cyano-4,6-dimethylpyridin-2-yl)-N-ethyl-4-((2-(methylsulfonyl)ethyl)-amino)-N-(m-tolyl)pyrrolidine-2-carboxamide] | 85 nM
CCN(C(=O)[C@H]1C[C@@H](N(C)C2CCNC2)CN1c1nc(C)cc(C)c1C#N)c1cccc(C)c1 (stereo in doubt) [Example 48, (2R,4R)-1-(3-Cyano-4,6-dimethylpyridin-2-yl)-N-ethyl-4-(methyl(pyrrolidin-3-yl)amino)-N-(m-tolyl)pyrrolidine-2-carboxamide] | 573 nM
CCN(C(=O)[C@H]1C[C@@H](N2CCNCC2)CN1c1nc(C)cc(C)c1C#N)c1cccc(C)c1 (stereo in doubt) [Example 50, (2R,4R)-1-(3-Cyano-4,6-dimethylpyridin-2-yl)-N-ethyl-4-(piperazin-1-yl)-N-(m-tolyl)-pyrrolidine-2-carboxamide] | 232 nM
CCN(C(=O)[C@H]1C[C@@H](N(C)C2CCN(C(C)=O)C2)CN1c1nc(C)cc(C)c1C#N)c1cccc(C)c1 (stereo in doubt) [Example 52, (2R,4R)-4-((1-Acetylpyrrolidin-3-yl)(methyl)amino)-1-(3-cyano-4,6-dimethylpyridin-2-yl)-N-ethyl-N-(m-tolyl)pyrrolidine-2-carboxamide] | 588 nM

Continued, values first:

IC50 | Structure (SMILES)
223 nM | CCN(C(=O)[C@@H]1C[C@H](N[C@@H]2CN(C(=O)OC(C)(C)C)C[C@H]2O)CN1c1cc(C(F)(F)F)cc(C)n1)c1ccc(F)c(F)c1 (racemic) [Example 135, rac-tert-Butyl (3R,4R)-3-(((3S,5S)-5-((3,4-difluorophenyl)(ethyl)carbamoyl)-1-(6-methyl-4-(trifluoromethyl)-pyridin-2-yl)pyrrolidin-3-yl)amino)-4-hydroxypyrrolidine-1-carboxylate]
409 nM | CCN(C(=O)[C@@H]1C[C@H](N(C)[C@@H]2CN(C(=O)OC(C)(C)C)C[C@H]2O)CN1c1cc(C(F)(F)F)cc(C)n1)c1ccc(F)c(F)c1 (racemic) [Example 143, rac-tert-Butyl (3R,4R)-3-(((3S,5S)-5-((3,4-difluorophenyl)(ethyl)carbamoyl)-1-(6-methyl-4-(trifluoromethyl)pyridin-2-yl)pyrrolidin-3-yl)(methyl)amino)-4-hydroxypyrrolidine-1-carboxylate]
28 nM | Cc1cc(C(F)(F)F)cc(N2C(=O)N(CCN3CCCC3CO)C[C@H]2C(=O)N(C)c2ccc(F)c(Cl)c2)n1 (single isomer, unassigned; isomer 1) [Example 198]
32 nM | Cc1cc(C(F)(F)F)cc(N2C(=O)N(CCN3CCCC3CO)C[C@H]2C(=O)N(C)c2ccc(F)c(Cl)c2)n1 (single isomer, unassigned; isomer 2) [Example 199]
16 nM | Cc1cc(C(F)(F)F)cc(N2C(=O)N(CC3CN(C)C(=O)O3)C[C@H]2C(=O)N(C)c2ccc(F)c(Cl)c2F)n1 (single isomer, unassigned; isomer 2) [Example 230]

Same assay, conditions: read-out: Polθ IC50; full length N-His, C-term FLAG tagged Polθ, PicoGreen fluorescence, 12 point concentration response

IC50 | Structure (SMILES)
15 nM | Cc1cc(C(F)(F)F)cc(N2C(=O)N(CC3CN(C)C(=O)O3)C[C@H]2C(=O)N(C)c2ccc(F)c(Cl)c2F)n1 (single isomer, unassigned; isomer 1) [Example 229]
